Test results: US20090247611A1, “METHOD OF TREATING A CANCER WITH A SURVIVIN ANTISENSE OLIGONUCLEOTIDE AND PACLITAXEL” (priority 2004, published 2009)

Experiments:
HeLa cells = test: cell based caspase 3 assay; details: oligonucleotide 50 nM transfected 24 h, then 10 nM gemcitabine HCl or 1.25 nM paclitaxel for additional 48 h, compared to untreated control
Procedure: The assay is performed as described below.
HeLa cells are obtained from ATCC, Manassas, Va. and are cultured in DMEM with L-Glutamine medium (Gibco/Invitrogen) supplemented with 10% Fetal Bovine Serum (Hyclone), 0.1 mM Non-Essential Amino Acids, and 1 mM Sodium Pyruvate (Gibco/Invitrogen). For the caspase-3 assay, 96-well plates are plated with 1×10^4 cells/well. […] Caspases-3 activity is measured by reading proteolytically released fluor from the Ac-DEVD-AMC substrate using a plate-reading fluorometer with excitation at 360 nm and emission at 460 nm. After subtracting the plate background, the relative fluorescence units (RFU) are compared to untreated control and expressed as percentage increase in caspase-3 activity.
To investigate whether down-regulation of Survivin expression sensitizes HeLa cells to chemotherapy, combination treatment with Compound I and either gemcitabine HCl, doxorubicin HCl, or paclitaxel is evaluated. […] At the end of the incubation period, casapse-3 activity is measured. […] Data are expressed as percentage caspase-3 activity compared to untreated control.

[1] = system: U-87 MG human glioblastoma; test: human xenograft tumor model, tumor growth delay; type: in vivo; details: U-87 MG s.c. xenograft; oligonucleotide 50 mg/kg loading then 25 mg/kg i.v. every other day; gemcitabine HCl 2.5 mg/kg i.p. every third day x4
Procedure: The use of human xenograft tumor models has been described previously and is well known in the art. The following tumor types can be used to conduct the assay as described below. U-87 MG human glioblastoma are obtained from […] et al., Neoplasia (2000) 2(3):242-50). For xenograft studies, just before implantation, animals are irradiated (450 TBI (total body irradiation)), and cells are mixed in matrigel (1:1). […] All subsequent intravenous doses (25 mg/kg) of Compound I or MM control oligonucleotide are administered every other day. The treatment with sub-optimal doses of gemcitabine HCl, doxorubicin HCl, or paclitaxel is initiated one day following the loading dose. Gemcitabine HCl is administered intraperitoneally at 2.5 mg/kg every third day for a total of four doses. Paclitaxel is administered intravenously at 1 mg/kg every fourth day for a total of four doses. Bi-dimensional measurements are performed twice per week, and tumor volumes are calculated based on the following formula: […] Tumor volume data are transformed to a log scale to equalize variance across time and treatment groups. The data are analyzed using a two-way analysis of variance by time and treatment using SAS PROC MIXED software (SAS Institute, Inc., Cary, N.C.). The preferred correlation model for the repeated measures is AR (Auto Regressive of order 1). Treatment groups are compared at each time point. The data are plotted as means and standard errors for each treatment group versus time. The presence of synergy in combination therapies is assessed on the tumor growth delay (TGD) scale. The time to reach a specified tumor size (1500 or 2000 or 2500 mg in this study) is determined for each animal. […] Maximum likelihood analysis assuming a Weibull distribution is used to calculate mean times and standard errors for each treatment group. Tumor growth delay is the difference in mean times between each of the treated groups and the control group.

Row | SMILES | Mean (% Caspase-3 Activity) (HeLa cells) [%] | Tumor Growth Delay at 1500 mg, Mean ± S.E.M. [1] [days] | Tumor Growth Delay at 2000 mg, Mean ± S.E.M. [1] [days] | Tumor Growth Delay at 2500 mg, Mean ± S.E.M. [1] [days]
1 | CC(=O)O[C@H]1C(=O)[C@@]2(C)[C@H]([C@H](OC(=O)c3ccccc3)[C@]3(O)C[C@H](OC(=O)[C@H](O)[C@@H](NC(=O)c4ccccc4)c4ccccc4)C(C)=C1C3(C)C)[C@]1(OC(C)=O)CO[C@@H]1C[C@@H]2O [Paclitaxel, 5β, 20-Epoxy-1,2α,4,7β,10β,13α-hexahydroxytax-11-en-9-one 4,10-diacetate 2-benzoate 13-ester with (2R,3 S)—N-benzoyl-3-phenylisoserine] | 12.77 | – | – | –
2 | Cl.Nc1ccn([C@@H]2O[C@H](CO)[C@@H](O)C2(F)F)c(=O)n1 (single isomer, unassigned) [Gemcitabine HCl, 2′-deoxy-2′,2′-difluorocytidine monohydrochloride (⊖-isomer)] | 24.33 | 0.3 ± 1.1 | 0.3 ± 1.2 | 0.6 ± 1
